# “And” between values parts separate entries of the source, which are not always exact repeats. Equal values may be shown once.
# Assays:
# [1] = Weight gain of mice on CPDS diet; type: in vivo, BALB/c mice
# Protocol: To prepare a CPDS diet, a total of 3 kilos of Standard Purina chow was reduced to powder using a grinder. About 12 g of CPDS was added to the powder and thoroughly mixed, re-hydrated and reconstituted into pellets. Pellets were allowed to dry overnight.
# Male adult BALB/c mice were weighed and randomly divided to form the experimental groups. Mice were allowed to acclimatized 3 days prior to the beginning of the experiments. Mice from the control normal diet groups were fed ad libitum with standard Purina mouse chow. Mice from the CPDS treated groups were fed ad libitum with the CPDS preparation. The amount of food given was weighted and recorded to allow the evaluation of the CPDS dosage.
# The weight gained by each mice was evaluated weekly and prior to sacrifice. Mice were sacrificed by overexposure to CO2. The spleen from each mouse was collected under sterile conditions, transferred into HBSS buffered solution and kept on ice until used for other studies disclosed. Experiments were performed on the same day.
# splenocytes = assay: Total splenocyte (lymphocyte) count, trypan blue exclusion; type: in vivo, BALB/c mice; conditions: for Total Lymphocyte Counts: spleen
# Protocol: Splenocytes were isolated by obtaining spleen from the sacrificed mice on the same experimental day, homogenizing the spleen using a 50-M mesh screen, and suspending the homogenate in 25 ml of RPMI 1640. The splenocyte suspension was washed and then spun at 1200 rpm for 5 minutes. The red blood cells were lysed by an osmotic choc with distilled water. The splenocyte suspension was washed and spun at 1200 rpm for 5 minutes. The splenocytes were suspended in complete RPMI media (90% RPMI 1640, 10% FBS, antibiotics 1×, HEPES 1 mM) and the suspension was filtered through cotton wool. Cells were counted using trypan blue exclusion method. Total splenocyte count was recorded (Table 7). Cells were kept on ice and diluted to the appropriate concentration for the corresponding experimental procedures.
# To count splenocytes, two chambers of the hemacytometer were counted and the mean was calculated. The total splenocyte count was calculated by the following formula: Total splenocyte count=mean count×10 (dilution factor)×10^4×suspension volume. The mean was calculated for each control and treated group. Student's T test was performed between the control group and the treated group. The p value was calculated for statistical significance. Following spleen homogenization, the total number of splenocytes isolated was counted using a standard trypan blue method which discriminates between viable and non viable cells.
# NK cells = assay: NK cell activity, standard 51Cr release assay with YAC-1 target cells; type: in vivo, BALB/c mice; parameters: NK activity (%): concentration or dose not given beside the values; conditions: for NK activity (%): % specific lysis, E:T 200:1
# Protocol: NK cell activity was determined by using a standard NK assay (Coligan, J. E. et al. 1993. “In Vitro Assays for mouse lymphocyte function” Chapter 3, Current Protocol in Imnunology, John Wiley & Sons, New York) using YAC-1 cells (ATCC #TIB-160) as target cells. These cells were washed twice with HBSS, counted, and suspended at a concentration of 5×10^6 cells/ml. About 5×10^6 cells were labeled with 100 μCi of ^51Cr. Cells were incubated 90 minutes at 37° C. in a 5% CO2 humidified incubator and then washed three times with RPMI, counted, and suspended at a concentration of 1×10^5 cells/ml in complete RPMI. About 100 μl of target cells (˜1×10^4 cells) was put into each well of a round-bottom 96 wells plate.
# Four dilutions of splenocytes were prepared: 2×10^7 cells/ml, 1×10^7 cells/ml, 0.5×10^7 cells/ml, and 0.25×10^7 cells/ml. A volume of 100 μl of each splenocyte dilution was plated in triplicate with the target cells for a final effector:target (E:T) ratio of 200:1, 100:1, 50:1 and 25:1.
# A maximal control release was prepared in triplicate on each plate by adding 100 μl of 5% Triton X-100 solution instead of effector cells. Spontaneous release was prepared in triplicate on each plate by adding 100 μl of complete RPMI instead of effector cells. Plates were centrifuged and incubated 4 hours at 37° C. in a 5% CO2 humidified incubator. After incubation, the supernatants were collected and the ^51Cr release was determined using a gamma counter. The average cpm count was calculated for each triplicate. The average cpm count for the total and spontaneous release was also calculated. The percentage (%) of specific lysis is calculated using the following formula:
# Where, ER=Experimental release of ^51Cr • TR=Total release of ^51Cr • SR=Spontaneous release of ^51Cr
# The % of specific lysis for every ratio (200:1, 100:1, 50:1 and 25:1) was calculated. A graphic representation of the results is done: specific lysis % versus the ratio to verify the linearity. For BALB/c mice strains which usually show low NK activity, specific lysis corresponding to an E:T ratio of 200:1 is used to represent the data for each animal. The mean NK activity is then calculated for each control and treated group. Student's T test was performed between the control group and the treated group. The p value was calculated for statistical significance.
# In this assay, the effect on the NK activity of feeding Balb/c mice with compound CPDS for short term (6 days) and longer term (30 days) was evaluated. The NK cells are a lymphocyte subset with non specific cytotoxicity activity. Results are presented as the % of specific lysis of target cells for a ratio of 200:1 (Table 8 and FIG. 2). Balb/c mice normally show low NK activity which justifies the choice of the 200:1 ratio for the comparison between groups.
# [2] = literature statement; cited from earlier work
# [3] = Group 2 (30 days CPDS diet), group Mean ± S.D.
# [4] = Group 2 (30 days CPDS diet), individual mice
# [5] = Group 4 (45 days CPDS diet), group Mean ± S.D.
# [6] = Group 4 (45 days CPDS diet), individual mice
# [7] = Group 6 (6 days CPDS diet), group Mean ± S.D.
# [8] = Group 6 (6 days CPDS diet), individual mice
# [9] = Group 2, 30 days on CPDS diet, individual mice
# [10] = Group 6, 6 days on CPDS diet, individual mice
compound,measurement,setting,value
"O=C(O)c1ccc(SSc2ccc(C(=O)O)cn2)nc1 [CPDS, 6,6′-dithiodinicotinic acid]","Animal weight, Day 0",[1]; [3],14.87 ± 1.18 g
same,"Animal weight, Day 6",[1]; [3],17.89 ± 1.2 g
same,"Animal weight, Day 14",[1]; [3],19.36 ± 0.9 g
same,"Animal weight, Day 21",[1]; [3],20.50 ± 0.9 g
same,"Animal weight, Day 28",[1]; [3],22.04 ± 1.0 g
same,"Animal weight, Day 0",[1]; [4],15.87 g and 15.18 g and 12.76 g and 15.67 g and 15.69 g and 15.29 g and 15.25 g and 13.28 g
same,"Animal weight, Day 6",[1]; [4],18.64 g and 19.84 g and 15.20 g and 18.31 g and 18.66 g and 18.54 g and 17.98 g and 16.92 g
same,"Animal weight, Day 14",[1]; [4],19.66 g and 20.46 g and 17.47 g and 19.96 g and 19.78 g and 19.09 g and 19.84 g and 18.65 g
same,"Animal weight, Day 21",[1]; [4],20.10 g and 21.36 g (2×) and 18.72 g and 21.20 g and 20.58 g and 20.79 g and 19.87 g
same,"Animal weight, Day 28",[1]; [4],21.96 g and 22.76 g and 19.99 g and 22.98 g and 22.80 g and 22.31 g and 22.57 g and 20.94 g
same,"Animal weight, Day 0",[1]; [5],14.57 ± 0.8 g
same,"Animal weight, Day 6",[1]; [5],17.74 ± 1.0 g
same,"Animal weight, Day 14",[1]; [5],18.92 ± 1.1 g
same,"Animal weight, Day 21",[1]; [5],19.86 ± 1.1 g
same,"Animal weight, Day 28",[1]; [5],21.60 ± 1.2 g
same,"Animal weight, Day 35",[1]; [5],22.19 ± 1.1 g
same,"Animal weight, Day 45",[1]; [5],22.78 ± 1.1 g
same,"Animal weight, Day 0",[1]; [6],13.58 g and 16.07 g and 14.28 g and 13.75 g and 14.89 g and 15.10 g and 13.67 g and 15.20 g
same,"Animal weight, Day 6",[1]; [6],17.25 g and 18.57 g and 17.03 g and 16.46 g and 17.79 g and 18.38 g and 16.98 g and 19.46 g
same,"Animal weight, Day 14",[1]; [6],18.57 g (2×) and 20.58 g and 18.25 g and 17.66 g and 18.83 g and 18.02 g and 20.86 g
same,"Animal weight, Day 21",[1]; [6],19.72 g and 21.59 g and 19.22 g and 18.38 g and 19.40 g and 19.35 g and 19.45 g and 21.74 g
same,"Animal weight, Day 28",[1]; [6],21.40 g (2×) and 23.72 g and 20.35 g and 20.18 g and 21.41 g and 21.14 g and 23.19 g
same,"Animal weight, Day 35",[1]; [6],21.82 g and 24.00 g and 20.91 g and 20.95 g and 22.47 g and 21.39 g and 22.28 g and 23.68 g
same,"Animal weight, Day 45",[1]; [6],22.71 g and 24.66 g and 20.96 g and 21.78 g and 23.15 g and 22.10 g and 23.09 g and 23.80 g
same,"Animal weight, Day 0",[1]; [7],15.15 ± 1.1 g
same,"Animal weight, Day 6",[1]; [7],18.40 ± 0.7 g
same,"Animal weight, Day 0",[1]; [8],13.90 g and 16.04 g and 15.50 g
same,"Animal weight, Day 6",[1]; [8],17.60 g and 19.18 g and 18.43 g
same,Course of animal weight (in words),"[1]; group fed CPDS diet for 45 days, food intake constant",stabilized after day 35
same,Weight gain vs group on normal Purina chow (in words),"[1]; group fed CPDS for 45 days, p=0.01432",statistically significant lower weight gain
same,Weight gain (in words),[1]; groups fed CPDS diet for 6 and 30 days,constant and normal
same,"Total Lymphocyte Counts, variation","splenocytes; Group 2, 30 days on CPDS diet vs group 1 (normal diet)",−15.58%
same,Total Lymphocyte Counts,"splenocytes; Group 2, 30 days on CPDS diet, group Mean",5.01 × 10^7
same,Total Lymphocyte Counts,splenocytes; [9],3.94 × 10^7 and 5.18 × 10^7 and 6.03 × 10^7 and 4.47 × 10^7 and 5.54 × 10^7 and 5.91 × 10^7 and 4.77 × 10^7 and 4.25 × 10^7
same,"Total Lymphocyte Counts, variation","splenocytes; Group 6, 6 days on CPDS diet vs group 5 (normal diet)",−30.97%
same,Total Lymphocyte Counts,"splenocytes; Group 6, 6 days on CPDS diet, group Mean",4.16 × 10^7
same,Total Lymphocyte Counts,splenocytes; [10],3.08 × 10^7 and 4.58 × 10^7
same,Necrosis or loss of splenocyte viability,splenocytes; after 6 and 30 days CPDS diet,No signs of necrosis or loss of splenocyte viability were observed
same,"NK activity, effect of CPDS diet","NK cells; 6 days, vs control",No significant effect
same,"NK activity, variation","NK cells; Group 2, 30 days on CPDS diet vs Group 1",24.7%
same,NK activity (%),"NK cells; Group 2, 30 days on CPDS diet, Mean ± S.D.",6.8 ± 1.4%
same,NK activity (%),NK cells; [9],8.7% and 7.9% and 5.0% and 6.9% and 6.3% and 5.6% (2×) and 8.2%
same,"NK activity, variation","NK cells; Group 6, 6 days on CPDS diet vs group 5",−13.1%
same,NK activity (%),"NK cells; Group 6, 6 days on CPDS diet, Mean ± S.D.",7.9 ± 2.0%
same,NK activity (%),NK cells; [10],10.2% and 7.0% and 6.6%
same,Toxicity,[2],low toxicity
